From article PMC12281424, “A Rac-specific competitive inhibitor of guanine nucleotide binding reduces metastasis in triple-negative breast cancer” (Cell Reports Medicine, 2025)
“Also recorded” adds a separate entry of the source.

Legend:
MKK6(h) = MKK6(h) (Homo sapiens, UniProt P52564); assay: Kinase Profiler; type: biochemical
Protocol: (§1) The kinase profiler was performed by the company Eurofins (Discovery, Panlab and Cerep).

CT26 cells = assay: Colorectal tumor model (hepatic metastasis); type: in vivo, mouse; conditions: 25 mg/kg/day i.p., 2 weeks after s.c. implantation
From the text: Figure 7 A41 decreases metastasis of colorectal cancer cells in vivo (A–C) Therapeutic effect of A41 on the pulmonary metastasis formation of colorectal circulating tumoral cells (CT26 cells). In control, A41-, and cisplatin-treated mice, metastasis surface (A), survival (B), and body weight (C) were quantified (N = 10 mice; ∗p < 0.05 vs. controls). (D) Therapeutic effect of A41 on colorectal tumor-dependent hepatic metastasis formation (N = 5–8 mice; ∗p < 0.05, ∗∗p < 0.01, and ∗∗∗p < 0.001 vs. controls).
8 weeks-old BALB/c female mice were obtained from the School of Veterinary Sciences at the National University of La Plata and treated in accordance with the Canadian Council on Animal Care and ARRIVE guidelines. 1x10^6 CT26 viable cells were resuspended in PBS (100 μL) and injected subcutaneously into the right flank of each animal. Mice were distributed and treated as follows: control, consist in a daily intraperitoneal (ip) administration of vehicle (5% DMSO, 45% PEG400); A41, ip administration of 25 mg/kg BW/day; 5-FU, ip administration 20 mg/kgBW/week in sterile water; A41+5-FU, ip administration of A41 and 5-FU treatments. Liver metastases were identified and quantified under a stereoscopic magnifying glass. These lesions were distinguished by their isolated circular shape, their marked whitish color contrasting with the reddish liver tissue, and their raised appearance.

[1] = target: Serotonin (5-Hydroxytryptamine) 5-HT1A (Homo sapiens, UniProt P08908); assay: Safety screen; type: binding
Protocol: (§2) Blood cell counts, kinase profiler, safety screen, bacterial cytotoxicity, Ames, micronucleus assays were performed by the company Eurofins (France). The kinase profiler was performed by the company Eurofins (Discovery, Panlab and Cerep).

MYO3B(h) = MYO3B(h) (Homo sapiens, UniProt Q8WXR4); assay: Kinase Profiler; type: biochemical
Protocol: as §1

PRK2(h) = PRK2(h) (Homo sapiens, UniProt Q16513); assay: Kinase Profiler; type: biochemical
Protocol: as §1

FAK(h) = FAK(h) (Homo sapiens, UniProt Q05397); assay: Kinase Profiler; type: biochemical
Protocol: as §1

Fgr(h) = Fgr(h) (Homo sapiens, UniProt P09769); assay: Kinase Profiler; type: biochemical
Protocol: as §1

IGF-1R(h) = IGF-1R(h) (Homo sapiens, UniProt P08069); assay: Kinase Profiler; type: biochemical
Protocol: as §2

mTOR/FKBP12(h) = mTOR/FKBP12(h) (Homo sapiens, UniProt P42345); assay: Kinase Profiler; type: biochemical
Protocol: as §1

cKit(D816V)(h) = cKit(D816V)(h) (Homo sapiens, UniProt P10721, D816V); assay: Kinase Profiler; type: biochemical
Protocol: as §2

ALK4(h) = ALK4(h) (Homo sapiens, UniProt P36896); assay: Kinase Profiler; type: biochemical
Protocol: as §1

HRI(h) = HRI(h) (Homo sapiens, UniProt Q9BQI3); assay: Kinase Profiler; type: biochemical
Protocol: as §1

[2] = system: GABAA, Chloride Channel, TBOB; assay: Safety screen; type: binding, rat
Protocol: (§3) Blood cell counts, kinase profiler, safety screen, bacterial cytotoxicity, Ames, micronucleus assays were performed by the company Eurofins (France).

PAK1(h) = PAK1(h) (Homo sapiens, UniProt Q13153); assay: Kinase Profiler; type: biochemical
Protocol: as §2

ALK1(h) = ALK1(h) (Homo sapiens, UniProt P37023); assay: Kinase Profiler; type: biochemical
Protocol: as §1

GSK3α(h) = GSK3α(h) (Homo sapiens, UniProt P49840); assay: Kinase Profiler; type: biochemical
Protocol: as §2

EGFR(T790M)(h) = EGFR(T790M)(h) (Homo sapiens, UniProt P00533, T790M); assay: Kinase Profiler; type: biochemical
Protocol: as §1

cKit(D816H)(h) = cKit(D816H)(h) (Homo sapiens, UniProt P10721, D816H); assay: Kinase Profiler; type: biochemical
Protocol: as §2

ROCK-II(r) = ROCK-II(r) (Rattus norvegicus, UniProt Q62868); assay: Kinase Profiler; type: biochemical
Protocol: as §2

Abl (H396P) (h) = Abl (H396P) (h) (Homo sapiens, UniProt P00519, H396P); assay: Kinase Profiler; type: biochemical
Protocol: as §1

ZIPK(h) = ZIPK(h) (Homo sapiens, UniProt O43293); assay: Kinase Profiler; type: biochemical
Protocol: as §1

[3] = target: Cholecystokinin CCK1 (CCKA) (Homo sapiens, UniProt P32238); assay: Safety screen; type: binding
Protocol: as §3

IR(h) = IR(h) (Homo sapiens, UniProt P06213); assay: Kinase Profiler; type: biochemical
Protocol: as §2

NEK9(h) = NEK9(h) (Homo sapiens, UniProt Q8TD19); assay: Kinase Profiler; type: biochemical
Protocol: as §1

CDK12/cyclinK(h) = CDK12/cyclinK(h) (Homo sapiens, UniProt Q9NYV4); assay: Kinase Profiler; type: biochemical
Protocol: as §2

[4] = system: Glutamate, NMDA, Polyamine; assay: Safety screen; type: binding, rat
Protocol: as §2

MST4(h) = MST4(h) (Homo sapiens, UniProt Q9P289); assay: Kinase Profiler; type: biochemical
Protocol: as §1

Phosphodiesterase PDE3 = assay: Safety screen; type: biochemical, human
Protocol: as §3

Rsk2(h) = Rsk2(h) (Homo sapiens, UniProt P51812); assay: Kinase Profiler; type: biochemical
Protocol: as §1

Pyk2(h) = Pyk2(h) (Homo sapiens, UniProt Q14289); assay: Kinase Profiler; type: biochemical
Protocol: as §1

EGFR(L861Q)(h) = EGFR(L861Q)(h) (Homo sapiens, UniProt P00533, L861Q); assay: Kinase Profiler; type: biochemical
Protocol: as §1

GCN2(h) = GCN2(h) (Homo sapiens, UniProt Q9P2K8); assay: Kinase Profiler; type: biochemical
Protocol: as §2

CDK12/cyclinK(h), sequence (Q9NYV4 whole entry): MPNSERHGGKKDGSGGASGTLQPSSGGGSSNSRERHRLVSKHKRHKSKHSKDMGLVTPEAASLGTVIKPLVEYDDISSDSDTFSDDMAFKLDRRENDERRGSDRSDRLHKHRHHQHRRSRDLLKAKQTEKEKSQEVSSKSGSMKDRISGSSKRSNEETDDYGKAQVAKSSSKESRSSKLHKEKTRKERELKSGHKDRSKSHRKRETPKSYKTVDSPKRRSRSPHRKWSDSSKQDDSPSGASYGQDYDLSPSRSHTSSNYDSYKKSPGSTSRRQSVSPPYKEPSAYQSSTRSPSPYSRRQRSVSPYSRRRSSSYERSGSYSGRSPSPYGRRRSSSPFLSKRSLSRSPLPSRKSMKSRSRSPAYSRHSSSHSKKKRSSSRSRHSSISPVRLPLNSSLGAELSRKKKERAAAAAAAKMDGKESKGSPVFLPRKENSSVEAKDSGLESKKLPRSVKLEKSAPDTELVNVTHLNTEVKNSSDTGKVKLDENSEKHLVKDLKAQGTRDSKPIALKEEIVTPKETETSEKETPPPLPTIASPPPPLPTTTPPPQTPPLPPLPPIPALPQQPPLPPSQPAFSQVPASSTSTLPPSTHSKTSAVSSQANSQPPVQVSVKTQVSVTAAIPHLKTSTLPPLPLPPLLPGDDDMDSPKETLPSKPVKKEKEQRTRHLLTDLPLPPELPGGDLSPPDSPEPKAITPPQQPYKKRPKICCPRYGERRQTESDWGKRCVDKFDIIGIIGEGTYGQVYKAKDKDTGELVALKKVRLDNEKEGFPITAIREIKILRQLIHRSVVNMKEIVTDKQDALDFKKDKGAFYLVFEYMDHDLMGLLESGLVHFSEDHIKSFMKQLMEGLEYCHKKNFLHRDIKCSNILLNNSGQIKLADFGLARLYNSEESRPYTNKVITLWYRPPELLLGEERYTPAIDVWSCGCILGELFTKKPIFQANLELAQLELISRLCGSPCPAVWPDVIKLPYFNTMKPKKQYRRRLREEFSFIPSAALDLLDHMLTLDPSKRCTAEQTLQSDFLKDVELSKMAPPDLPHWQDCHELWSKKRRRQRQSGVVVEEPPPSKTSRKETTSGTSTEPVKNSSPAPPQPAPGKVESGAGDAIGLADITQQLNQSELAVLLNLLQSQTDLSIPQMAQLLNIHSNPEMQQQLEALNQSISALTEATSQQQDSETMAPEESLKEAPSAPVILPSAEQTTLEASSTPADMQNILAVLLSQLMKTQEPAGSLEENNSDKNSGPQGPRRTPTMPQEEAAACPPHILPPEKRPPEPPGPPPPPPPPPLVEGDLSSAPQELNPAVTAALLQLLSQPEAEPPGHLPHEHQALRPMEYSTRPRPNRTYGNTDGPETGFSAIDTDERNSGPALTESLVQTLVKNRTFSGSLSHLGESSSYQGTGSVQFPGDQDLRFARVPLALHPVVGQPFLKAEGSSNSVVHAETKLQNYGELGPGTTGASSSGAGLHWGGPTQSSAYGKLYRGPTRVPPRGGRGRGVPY
CDK12/cyclinK(h), sequence (O75909 whole entry partner): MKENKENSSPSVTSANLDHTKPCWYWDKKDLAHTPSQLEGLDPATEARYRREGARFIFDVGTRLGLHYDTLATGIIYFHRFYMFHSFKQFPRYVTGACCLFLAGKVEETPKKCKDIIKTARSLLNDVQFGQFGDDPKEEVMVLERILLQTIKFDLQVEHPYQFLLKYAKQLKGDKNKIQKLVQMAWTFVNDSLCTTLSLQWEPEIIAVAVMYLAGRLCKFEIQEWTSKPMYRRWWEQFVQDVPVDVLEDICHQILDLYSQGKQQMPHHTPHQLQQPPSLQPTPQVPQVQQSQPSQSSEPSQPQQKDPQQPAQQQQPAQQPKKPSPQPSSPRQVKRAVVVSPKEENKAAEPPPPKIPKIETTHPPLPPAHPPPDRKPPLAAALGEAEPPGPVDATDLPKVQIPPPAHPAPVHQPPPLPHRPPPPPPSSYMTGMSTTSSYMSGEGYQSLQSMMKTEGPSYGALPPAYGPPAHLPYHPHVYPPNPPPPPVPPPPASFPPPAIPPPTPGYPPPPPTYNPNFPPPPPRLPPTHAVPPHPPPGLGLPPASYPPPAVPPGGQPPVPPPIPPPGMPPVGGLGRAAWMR
PAK1(h), sequence (Q13153 whole entry): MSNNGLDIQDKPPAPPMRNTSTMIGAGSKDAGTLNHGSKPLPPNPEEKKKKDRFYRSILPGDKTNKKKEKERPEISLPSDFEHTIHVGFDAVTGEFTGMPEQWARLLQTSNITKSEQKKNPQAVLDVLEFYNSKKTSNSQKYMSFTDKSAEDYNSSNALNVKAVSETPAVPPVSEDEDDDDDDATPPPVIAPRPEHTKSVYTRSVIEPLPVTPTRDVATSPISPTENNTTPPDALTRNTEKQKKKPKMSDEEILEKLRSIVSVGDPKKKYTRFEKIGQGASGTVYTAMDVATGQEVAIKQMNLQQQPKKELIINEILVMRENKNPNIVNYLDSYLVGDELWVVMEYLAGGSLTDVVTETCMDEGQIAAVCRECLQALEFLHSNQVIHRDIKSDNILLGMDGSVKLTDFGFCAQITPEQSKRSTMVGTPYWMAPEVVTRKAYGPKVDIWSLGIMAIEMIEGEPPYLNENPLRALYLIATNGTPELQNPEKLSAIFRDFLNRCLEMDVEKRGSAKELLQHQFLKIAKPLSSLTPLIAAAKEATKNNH
Rsk2(h), sequence (P51812 whole entry): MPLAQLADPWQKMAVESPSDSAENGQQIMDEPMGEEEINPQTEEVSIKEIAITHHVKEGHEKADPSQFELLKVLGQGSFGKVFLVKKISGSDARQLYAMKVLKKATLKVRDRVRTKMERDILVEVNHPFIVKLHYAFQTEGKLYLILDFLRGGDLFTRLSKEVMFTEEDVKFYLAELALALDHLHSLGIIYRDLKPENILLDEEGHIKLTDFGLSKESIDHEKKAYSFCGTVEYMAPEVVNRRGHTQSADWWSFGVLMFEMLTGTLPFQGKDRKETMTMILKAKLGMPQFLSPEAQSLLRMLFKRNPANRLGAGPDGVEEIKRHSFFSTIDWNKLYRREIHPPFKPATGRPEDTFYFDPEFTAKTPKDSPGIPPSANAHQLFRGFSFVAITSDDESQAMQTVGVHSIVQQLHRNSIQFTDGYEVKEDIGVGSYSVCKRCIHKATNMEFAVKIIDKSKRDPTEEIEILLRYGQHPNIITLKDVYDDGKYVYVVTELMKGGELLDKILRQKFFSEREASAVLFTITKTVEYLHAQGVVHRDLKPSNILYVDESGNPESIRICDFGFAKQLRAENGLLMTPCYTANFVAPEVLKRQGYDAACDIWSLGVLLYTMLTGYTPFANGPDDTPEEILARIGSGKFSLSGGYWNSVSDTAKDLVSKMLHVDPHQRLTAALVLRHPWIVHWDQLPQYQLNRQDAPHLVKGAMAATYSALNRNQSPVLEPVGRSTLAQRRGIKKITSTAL
PRK2(h), sequence (Q16513 whole entry): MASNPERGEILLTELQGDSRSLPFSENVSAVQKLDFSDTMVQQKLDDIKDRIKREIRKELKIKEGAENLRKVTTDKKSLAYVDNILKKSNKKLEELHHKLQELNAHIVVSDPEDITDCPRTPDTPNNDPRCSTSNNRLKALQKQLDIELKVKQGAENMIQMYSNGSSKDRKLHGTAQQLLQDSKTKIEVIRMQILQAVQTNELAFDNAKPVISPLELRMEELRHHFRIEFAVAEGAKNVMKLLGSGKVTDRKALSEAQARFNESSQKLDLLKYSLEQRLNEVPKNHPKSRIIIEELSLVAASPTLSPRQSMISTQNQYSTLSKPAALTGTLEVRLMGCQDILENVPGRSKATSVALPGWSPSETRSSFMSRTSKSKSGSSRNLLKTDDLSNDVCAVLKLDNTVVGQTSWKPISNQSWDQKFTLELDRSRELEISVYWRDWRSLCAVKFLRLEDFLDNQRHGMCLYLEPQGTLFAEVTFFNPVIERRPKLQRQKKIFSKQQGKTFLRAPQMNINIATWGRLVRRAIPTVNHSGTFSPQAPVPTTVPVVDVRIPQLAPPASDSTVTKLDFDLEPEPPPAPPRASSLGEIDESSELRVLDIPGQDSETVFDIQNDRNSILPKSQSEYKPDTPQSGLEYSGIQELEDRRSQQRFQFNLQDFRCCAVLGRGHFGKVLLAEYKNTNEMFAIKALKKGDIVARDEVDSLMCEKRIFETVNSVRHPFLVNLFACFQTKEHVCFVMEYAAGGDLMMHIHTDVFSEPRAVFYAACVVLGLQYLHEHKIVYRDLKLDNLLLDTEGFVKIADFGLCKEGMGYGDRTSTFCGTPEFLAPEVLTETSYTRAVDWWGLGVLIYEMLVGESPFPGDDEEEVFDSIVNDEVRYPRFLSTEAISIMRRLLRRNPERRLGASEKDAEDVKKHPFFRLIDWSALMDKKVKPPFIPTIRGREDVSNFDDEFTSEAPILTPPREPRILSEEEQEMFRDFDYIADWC
ROCK-II(r), sequence (Q62868 2-543 limits assumed): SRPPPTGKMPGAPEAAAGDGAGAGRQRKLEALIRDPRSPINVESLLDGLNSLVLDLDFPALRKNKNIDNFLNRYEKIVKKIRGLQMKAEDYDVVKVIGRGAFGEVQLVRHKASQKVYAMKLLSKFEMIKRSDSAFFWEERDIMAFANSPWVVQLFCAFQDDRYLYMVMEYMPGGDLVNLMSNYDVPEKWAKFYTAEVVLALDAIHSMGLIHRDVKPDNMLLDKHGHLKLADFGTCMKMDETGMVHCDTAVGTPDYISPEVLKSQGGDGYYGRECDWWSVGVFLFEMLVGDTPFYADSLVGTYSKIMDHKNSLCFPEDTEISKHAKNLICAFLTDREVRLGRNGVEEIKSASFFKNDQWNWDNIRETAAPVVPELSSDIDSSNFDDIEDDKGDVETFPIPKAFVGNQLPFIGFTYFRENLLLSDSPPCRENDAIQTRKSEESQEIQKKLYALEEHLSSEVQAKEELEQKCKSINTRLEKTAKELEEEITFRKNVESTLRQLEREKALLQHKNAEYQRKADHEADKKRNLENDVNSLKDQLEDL

COc1ccc(OC)c(NS(=O)(=O)c2ccc(NC(=O)CCSc3ccc(C)cc3)cc2)c1 [Compound A41]
Activity(%) (MKK6(h)): 90%
number of liver metastases (CT26 cells): significantly reduced the number of metastases; also recorded: more effective than 5-fluorouracil (5FU)
% inh. [1]: 6%
Activity(%) (MYO3B(h)): 106%
Activity(%) (PRK2(h)): 110%
Activity(%) (FAK(h)): 111%
Activity(%) (Fgr(h)): 114%
Activity(%) (IGF-1R(h)): 100%
Activity(%) (mTOR/FKBP12(h)): 104%
Activity(%) (cKit(D816V)(h)): 88%
Activity(%) (ALK4(h)): 101%
Activity(%) (HRI(h)): 98%
% inh. [2]: 45%
Activity(%) (PAK1(h)): 115%
Activity(%) (ALK1(h)): 102%
Activity(%) (GSK3α(h)): 90%
Activity(%) (EGFR(T790M)(h)): 113%
Activity(%) (cKit(D816H)(h)): 109%
Activity(%) (ROCK-II(r)): 110%
Activity(%) (Abl (H396P) (h)): 92%
Activity(%) (ZIPK(h)): 103%
% inh. [3]: 31%
Activity(%) (IR(h)): 137%
Activity(%) (NEK9(h)): 107%
Activity(%) (CDK12/cyclinK(h)): 100%
% inh. [4]: 19%
Activity(%) (MST4(h)): 101%
% inh. (Phosphodiesterase PDE3): 9%
Activity(%) (Rsk2(h)): 86%
Activity(%) (Pyk2(h)): 92%
Activity(%) (EGFR(L861Q)(h)): 107%
Activity(%) (GCN2(h)): 101%
